Measurements from the supplement of paper PMC10307832.

Columns and labels:
Assay in all cases: relative viability (nuclei count vs DMSO), 5 days (fraction); higher = more cells survive
[1] = compound: C#Cc1cccc(Nc2ncnc3cc(OCCOC)c(OCCOC)cc23)c1 [Erlotinib] + CS(=O)(=O)CCNCc1ccc(-c2ccc3ncnc(Nc4ccc(OCc5cccc(F)c5)c(Cl)c4)c3c2)o1 [Lapatinib] (partner 2 µM)
Method in brief: (§1)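 Cells from lung cancer lines were seeded into 1536-well plates and, one day later, dosed by pin tool. Treatments were either a single drug or a fixed dose of an anchor drug with five library-drug doses (not always all listed) in √10 steps. After 5 days, nuclei were stained in a one-step fixation (final 0.05% Triton X-100, 1% formaldehyde, 1 ug/ml Hoechst) and counted on 4× images, and relative viability is the treated-to-vehicle nuclei ratio, as the median of duplicate plates.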

[2] = compound: C#Cc1cccc(Nc2ncnc3cc(OCCOC)c(OCCOC)cc23)c1 [Erlotinib] + Nc1ncn([C@H]2C[C@H](O)[C@@H](CO)O2)c(=O)n1 [Decitabine] (partner 2 µM)
Method in brief: as §1

[3] = compound: O=C(Nc1c[nH]nc1-c1nc2ccc(CN3CCOCC3)cc2[nH]1)NC1CC1 [AT9283] + CC(=O)Nc1cccc(-n2c(=O)n(C3CC3)c(=O)c3c(Nc4ccc(I)cc4F)n(C)c(=O)c(C)c32)c1 [Trametinib] (partner 0.02 µM)
Method in brief: as §1

[4] = compound: O=C(Nc1c[nH]nc1-c1nc2ccc(CN3CCOCC3)cc2[nH]1)NC1CC1 [AT9283] + CS(=O)(=O)N1CCN(Cc2cc3nc(-c4cccc5[nH]ncc45)nc(N4CCOCC4)c3s2)CC1 [Pictilisib] (partner 1 µM)
Method in brief: as §1

[5] = compound: O=C(Nc1c[nH]nc1-c1nc2ccc(CN3CCOCC3)cc2[nH]1)NC1CC1 [AT9283] + C[C@@H](Oc1cc(-c2cnn(C3CCNCC3)c2)cnc1N)c1c(Cl)ccc(F)c1Cl [Crizotinib] (partner 1 µM)
Method in brief: as §1

Cell Line: LU99A
- relative viability ([1]; first compound 0.02 µM): 1.1
- relative viability ([1]; first compound 0.2 µM): 0.999
- relative viability ([1]; first compound 0.6325 µM): 1.05
- relative viability ([1]; first compound 2 µM): 0.768
- relative viability ([2]; first compound 0.2 µM): 0.92
- relative viability ([2]; first compound 0.6325 µM): 0.983
- relative viability ([2]; first compound 2 µM): 0.765
- relative viability ([3]; first compound 0.003 µM): 0.539
- relative viability ([3]; first compound 0.03 µM): 0.327
- relative viability ([3]; first compound 0.09487 µM): 0.178
- relative viability ([3]; first compound 0.3 µM): 0.217
- relative viability ([4]; first compound 0.003 µM): 0.293
- relative viability ([4]; first compound 0.03 µM): 0.185
- relative viability ([4]; first compound 0.09487 µM): 0.152
- relative viability ([4]; first compound 0.3 µM): 0.164
- relative viability ([5]; first compound 0.003 µM): 0.492
- relative viability ([5]; first compound 0.03 µM): 0.28
- relative viability ([5]; first compound 0.09487 µM): 0.185
- relative viability ([5]; first compound 0.3 µM): 0.168

Cell Line: EKVX
- relative viability ([1]; first compound 0.02 µM): 0.206
- relative viability ([1]; first compound 0.2 µM): 0.178
- relative viability ([1]; first compound 0.6325 µM): 0.192
- relative viability ([1]; first compound 2 µM): 0.186
- relative viability ([2]; first compound 0.02 µM): 0.341
- relative viability ([2]; first compound 0.2 µM): 0.232
- relative viability ([2]; first compound 0.6325 µM): 0.234
- relative viability ([2]; first compound 2 µM): 0.212
- relative viability ([3]; first compound 0.003 µM): 0.361
- relative viability ([3]; first compound 0.03 µM): 0.345
- relative viability ([3]; first compound 0.09487 µM): 0.32
- relative viability ([3]; first compound 0.3 µM): 0.191
- relative viability ([4]; first compound 0.003 µM): 0.419
- relative viability ([4]; first compound 0.03 µM): 0.411
- relative viability ([4]; first compound 0.09487 µM): 0.199
- relative viability ([4]; first compound 0.3 µM): 0.142
- relative viability ([5]; first compound 0.003 µM): 0.878
- relative viability ([5]; first compound 0.03 µM): 0.663
- relative viability ([5]; first compound 0.09487 µM): 0.371
- relative viability ([5]; first compound 0.3 µM): 0.216

Cell Line: NCI-H2087
- relative viability ([1]; first compound 0.02 µM): 0.996
- relative viability ([1]; first compound 0.2 µM): 1.15
- relative viability ([1]; first compound 0.6325 µM): 1.16
- relative viability ([1]; first compound 2 µM): 0.921
- relative viability ([2]; first compound 0.02 µM): 0.286
- relative viability ([2]; first compound 0.2 µM): 0.238
- relative viability ([2]; first compound 0.6325 µM): 0.282
- relative viability ([2]; first compound 2 µM): 0.208
- relative viability ([3]; first compound 0.003 µM): 0.176
- relative viability ([3]; first compound 0.03 µM): 0.096
- relative viability ([3]; first compound 0.09487 µM): 0.124
- relative viability ([3]; first compound 0.3 µM): 0.107
- relative viability ([4]; first compound 0.003 µM): 0.677
- relative viability ([4]; first compound 0.03 µM): 0.413
- relative viability ([4]; first compound 0.09487 µM): 0.21
- relative viability ([4]; first compound 0.3 µM): 0.208
- relative viability ([5]; first compound 0.003 µM): 0.795
- relative viability ([5]; first compound 0.03 µM): 0.554
- relative viability ([5]; first compound 0.09487 µM): 0.401
- relative viability ([5]; first compound 0.3 µM): 0.326

Cell Line: HCC-827
- relative viability ([1]; first compound 0.02 µM): 0.239
- relative viability ([1]; first compound 0.2 µM): 0.163
- relative viability ([1]; first compound 0.6325 µM): 0.201
- relative viability ([1]; first compound 2 µM): 0.171
- relative viability ([2]; first compound 0.02 µM): 0.21
- relative viability ([2]; first compound 0.2 µM): 0.215
- relative viability ([2]; first compound 0.6325 µM): 0.111
- relative viability ([2]; first compound 2 µM): 0.169
- relative viability ([3]; first compound 0.003 µM): 0.492
- relative viability ([3]; first compound 0.03 µM): 0.437
- relative viability ([3]; first compound 0.09487 µM): 0.257
- relative viability ([3]; first compound 0.3 µM): 0.204
- relative viability ([4]; first compound 0.003 µM): 0.822
- relative viability ([4]; first compound 0.03 µM): 0.775
- relative viability ([4]; first compound 0.09487 µM): 0.457
- relative viability ([4]; first compound 0.3 µM): 0.504
- relative viability ([5]; first compound 0.003 µM): 0.91
- relative viability ([5]; first compound 0.03 µM): 0.808
- relative viability ([5]; first compound 0.09487 µM): 0.41
- relative viability ([5]; first compound 0.3 µM): 0.283

Cell Line: A-427
- relative viability ([1]; first compound 0.02 µM): 1.04
- relative viability ([1]; first compound 0.2 µM): 1.02
- relative viability ([1]; first compound 0.6325 µM): 1.12
- relative viability ([1]; first compound 2 µM): 0.94
- relative viability ([2]; first compound 0.02 µM): 0.585
- relative viability ([2]; first compound 0.2 µM): 0.562
- relative viability ([2]; first compound 0.6325 µM): 0.592
- relative viability ([2]; first compound 2 µM): 0.582
- relative viability ([3]; first compound 0.003 µM): 0.706
- relative viability ([3]; first compound 0.03 µM): 0.501
- relative viability ([3]; first compound 0.09487 µM): 0.334
- relative viability ([3]; first compound 0.3 µM): 0.396
- relative viability ([4]; first compound 0.003 µM): 0.744
- relative viability ([4]; first compound 0.03 µM): 0.606
- relative viability ([4]; first compound 0.09487 µM): 0.19
- relative viability ([4]; first compound 0.3 µM): 0.208
- relative viability ([5]; first compound 0.003 µM): 0.851
- relative viability ([5]; first compound 0.03 µM): 0.482
- relative viability ([5]; first compound 0.09487 µM): 0.173
- relative viability ([5]; first compound 0.3 µM): 0.178

Cell Line: NCI-H460
- relative viability ([1]; first compound 0.02 µM): 0.918
- relative viability ([1]; first compound 0.2 µM): 1.1
- relative viability ([1]; first compound 0.6325 µM): 0.999
- relative viability ([1]; first compound 2 µM): 0.959
- relative viability ([2]; first compound 0.02 µM): 0.508
- relative viability ([2]; first compound 0.2 µM): 0.433
- relative viability ([2]; first compound 0.6325 µM): 0.505
- relative viability ([2]; first compound 2 µM): 0.47
- relative viability ([3]; first compound 0.003 µM): 0.143
- relative viability ([3]; first compound 0.03 µM): 0.215
- relative viability ([3]; first compound 0.09487 µM): 0.0758
- relative viability ([3]; first compound 0.3 µM): 0.0307
- relative viability ([4]; first compound 0.003 µM): 0.305
- relative viability ([4]; first compound 0.03 µM): 0.302
- relative viability ([4]; first compound 0.09487 µM): 0.0565
- relative viability ([4]; first compound 0.3 µM): 0.0907
- relative viability ([5]; first compound 0.003 µM): 0.729
- relative viability ([5]; first compound 0.03 µM): 0.786
- relative viability ([5]; first compound 0.09487 µM): 0.0665
- relative viability ([5]; first compound 0.3 µM): 0.0361

Cell Line: NCI-H1734
- relative viability ([1]; first compound 0.02 µM): 1.15
- relative viability ([1]; first compound 0.2 µM): 1.02
- relative viability ([1]; first compound 0.6325 µM): 1.3
- relative viability ([1]; first compound 2 µM): 1
- relative viability ([2]; first compound 0.02 µM): 0.488
- relative viability ([2]; first compound 0.2 µM): 0.485
- relative viability ([2]; first compound 0.6325 µM): 0.463
- relative viability ([2]; first compound 2 µM): 0.509
- relative viability ([3]; first compound 0.003 µM): 0.7
- relative viability ([3]; first compound 0.03 µM): 0.406
- relative viability ([3]; first compound 0.09487 µM): 0.267
- relative viability ([3]; first compound 0.3 µM): 0.271
- relative viability ([4]; first compound 0.003 µM): 0.406
- relative viability ([4]; first compound 0.03 µM): 0.271
- relative viability ([4]; first compound 0.09487 µM): 0.299
- relative viability ([4]; first compound 0.3 µM): 0.221
- relative viability ([5]; first compound 0.003 µM): 0.725
- relative viability ([5]; first compound 0.03 µM): 0.335
- relative viability ([5]; first compound 0.09487 µM): 0.246
- relative viability ([5]; first compound 0.3 µM): 0.216

Cell Line: NCI-H2009
- relative viability ([1]; first compound 0.02 µM): 0.971
- relative viability ([1]; first compound 0.2 µM): 1.03
- relative viability ([1]; first compound 0.6325 µM): 1.07
- relative viability ([1]; first compound 2 µM): 0.889
- relative viability ([2]; first compound 0.02 µM): 0.333
- relative viability ([2]; first compound 0.2 µM): 0.347
- relative viability ([2]; first compound 0.6325 µM): 0.35
- relative viability ([2]; first compound 2 µM): 0.374
- relative viability ([3]; first compound 0.003 µM): 0.346
- relative viability ([3]; first compound 0.03 µM): 0.267
- relative viability ([3]; first compound 0.09487 µM): 0.17
- relative viability ([3]; first compound 0.3 µM): 0.0856
- relative viability ([4]; first compound 0.003 µM): 0.774
- relative viability ([4]; first compound 0.03 µM): 0.462
- relative viability ([4]; first compound 0.09487 µM): 0.239
- relative viability ([4]; first compound 0.3 µM): 0.0896
- relative viability ([5]; first compound 0.003 µM): 0.967
- relative viability ([5]; first compound 0.03 µM): 0.446
- relative viability ([5]; first compound 0.09487 µM): 0.26
- relative viability ([5]; first compound 0.3 µM): 0.248

Cell Line: NCI-H1993
- relative viability ([1]; first compound 0.02 µM): 0.961
- relative viability ([1]; first compound 0.2 µM): 0.795
- relative viability ([1]; first compound 0.6325 µM): 0.698
- relative viability ([1]; first compound 2 µM): 0.827
- relative viability ([2]; first compound 0.02 µM): 0.602
- relative viability ([2]; first compound 0.2 µM): 0.483
- relative viability ([2]; first compound 0.6325 µM): 0.553
- relative viability ([2]; first compound 2 µM): 0.531
- relative viability ([3]; first compound 0.003 µM): 0.541
- relative viability ([3]; first compound 0.03 µM): 0.529
- relative viability ([3]; first compound 0.09487 µM): 0.445
- relative viability ([3]; first compound 0.3 µM): 0.433
- relative viability ([4]; first compound 0.003 µM): 0.841
- relative viability ([4]; first compound 0.03 µM): 0.748
- relative viability ([4]; first compound 0.09487 µM): 0.934
- relative viability ([4]; first compound 0.3 µM): 0.661
- relative viability ([5]; first compound 0.003 µM): 0.915
- relative viability ([5]; first compound 0.03 µM): 0.654
- relative viability ([5]; first compound 0.09487 µM): 0.572
- relative viability ([5]; first compound 0.3 µM): 0.543
